Results from patent publication US20240426845A1, “METHOD FOR DETECTING A LIPIDATED PROTEIN VIA FLUORESCENCE RESONANCE ENERGY TRANSFER (FRET)” (Biogen MA Inc., priority 2021, published 2024).

Assays:
[1] = system: CCF-STTG1 astrocytoma cells (ApoE lipoprotein secretion); assay: TR-FRET ApoE lipidation assay on media from CCF-STTG1 cells; type: cell-based; settings: Homo sapiens, media from CCF-STTG cells, 48 hours incubation, europium-conjugated anti-ApoE antibody and DiD, n=3, read-out: EC50 (TR-FRET signal, ApoE lipidation)
Experimental: TR-FRET analysis was performed on an Envision plate reader (Perkin Elmer). The donor fluorophore (europium cryptate-conjugated antibody) was excited at 320 nm. A 40 μs delay occurred before measuring emission signals at 620 nm (donor fluorescence) and 665 nm wavelengths (DiD acceptor FRET signal) during a 400 μs window. Sample normalized FRET signal was determined by finding the ratio of the 665 nm emission to 620 nm emission.
(§1) To test whether the TR-FRET assay detects lipidated proteins secreted from cells, the TR-FRET assay was tested on concentrated media from cultures of CCF-STTG1 astrocytoma cells grown in the absence and presence of T0901317, a LXR transcription factor agonist that induces ApoE lipoprotein secretion. Samples of concentrated media were mixed with TR-FRET buffer, europium-conjugated anti-ApoE3 antibody and DiD, incubated at 37° C. for 20 hours, and then fluorescence was measured using an Envision plate reader. As a control, samples were analyzed by native-PAGE gels, a conventional method of detecting lipidated proteins.

[2] = system: CCF-STTG1 astrocytoma cells (ApoE lipoprotein secretion); assay: native-PAGE gel of ApoE lipidation in conditioned media; type: cell-based; settings: CCF-STTG1 cell media following culture with compound
Experimental: as §1

For `O=S(=O)(c1ccccc1)N(CC(F)(F)F)c1ccc(C(O)(C(F)(F)F)C(F)(F)F)cc1` [T0901317], the EC50 [1] was 0.0502 µM and the “lipidated ApoE in cell media by native-PAGE” value [2] was “dose-dependent accumulation of lipidated ApoE”.
